{
  "source": "patent US20250186325A1",
  "about": "“COMPOSITIONS OF ASCORBIC ACID SALTS” (SHISEIDO COMPANY, LTD., priority 2023, published 2025)",
  "assay": "Assay of SAP and AA2G by HPLC (ascorbic acid derivative loss)",
  "assay_type": "physicochemical",
  "conditions": "in FL#1, HPLC",
  "text": "The amount of ascorbic acid derivative content in a composition can be determined using a wide range of techniques including, but not limited to: titrimetric, spectrophotometric, electrochemical, fluorimetric, enzymatic and chromatographic. Methods for determining ascorbic acid derivative content in a topical composition can be complicated/confounded by the presence of excipients or other antioxidant agents (e.g., agents for stabilizing Vitamin C), as well as degradation products. Of the above-listed methods, high performance liquid chromatography may be preferred. See, A M Maia et al., “Validation of HPLC stability-indicating method for Vitamin C in semisolid pharmaceutical/cosmetic preparations . . . ” Talanta Vol. 71, pp. 639-643 (2007).\nIn addition, an assay of SAP and AA2G were analyzed by HPLC.",
  "data": [
    {"smiles": "O=C1O[C@H]([C@@H](O)CO)C(O)=C1O[C@H]1O[C@H](CO)[C@@H](O)[C@H](O)[C@H]1O", "note": "[AA2G, ascorbyl glucoside]", "values": [
      {"measurement": "% Loss @25° C. (4 weeks)", "setting": "25° C.", "value": "−1.00", "unit": "%"},
      {"measurement": "% Loss @37° C. (4 weeks)", "setting": "37° C.", "value": "−1.00", "unit": "%"},
      {"measurement": "% Loss @40° C. (4 weeks)", "setting": "40° C.", "value": "−1.00", "unit": "%"},
      {"measurement": "% Loss @45° C. (4 weeks)", "setting": "45° C.", "value": 0, "unit": "%"}
    ]}
  ]
}
